# Reference: patent publication US11220527B2, “Peptides derived from the propeptide NTSR3 and their use in the treatment of depression” (CENTRE NATIONAL DE LA RECHERCHE SCIENTIFIQUE, priority 2016, dated 2022)
# Entries after “also recorded” stand apart in the source; their conditions may differ. Where a SMILES comes first, the peptide text is derived from it. The star is where a group is joined. Biotin = O=C1N[C@H]2[C@H](CS[C@H]2CCCCC(=O)*)N1
# Columns and labels:
# PSD-95 protein = assay: Synaptogenesis: PSD-95 expression in cortical neurons by Western blot; type: cell-based, mouse C57BI/6J; settings: 1 μM, 0-36 hours, normalized to ß-actin, FIG. 6
# Protocol: Pregnant female C57BI/6J mice (20-25 g, Janvier Labs, St Berthevin, France) were anesthetized by inhalation of 2% isoflurane mixed with 30% oxygen and 70% nitrous oxide, and then sacrificed. The embryos (E14) were removed and the cerebral cortex was dissected in PBS containing 1% glucose. Neurons were prepared from cerebral cortex by mechanical dissociation, as described in Brewer and Torricelli, 2007 [26]. The dissociated neurons were distributed in poly-L-lysine treated plates and cultured for up to 10 days in neurobasal medium containing 2% B27 (Invitrogen, Fisher Scientific, Illkirch, France) and 50 μg/ml gentamycin (Sigma France), at 37° C. under 5% CO2. […]
# Cortical neurons treated with peptides G/A-PE(22-28) and biotinylated G/A-PE(22-28) for different durations (0, 5, 8, 24 and 36 hours) were homogenized in Laemmli buffer and analyzed using 10% SDS-Page gels. […] The ß-actin contents were determined after extraction using a 1/5000 dilution of anti-β-actin antibodies (Santa Cruz mouse monoclonal antibody, dilution 1/5000). […] The proteins were detected with ECL Plus detection reagents (Amersham Biosciences) using the LAS-3000 imaging system (Fujifilm, Düsseldorf, Germany). The relative intensities of each labeled band were analyzed by densitometric scanning using ImageJ software (Wayne Rasband, National Institute of Health, Bethesda, Md., USA). […]
# [1] = test system: BrdU-positive cells of the dentate gyrus of the hippocampus; assay: Hippocampal neurogenesis by BrdU immunohistochemistry; type: in vivo; settings: mice, four days of treatment, FIG. 5
# Protocol: BrdU (5-bromo-2′-deoxyuridine) is a synthetic nucleoside analogous to thymidine. It is incorporated during DNA replication during phase S (chromosome duplication during interphase) of the cells in division. Injection of BrdU makes it possible to visualize the cells in division of the tissue to be analyzed by means of immunological labeling. In the present study, the hippocampal neurogenesis of the mice was evaluated after treatment with spadin or the different analogs.
# After the behavioral tests, the mice were injected with BrdU at a final concentration of 120 mg/kg intraperitoneally, according to the modified protocol of Beauquis, J. et al. (Eur J Neurosci 23, 1539-1546, 2007). Four injections of 300 μl at 10 mg/ml, spaced two hours apart, were performed. 24 hours after the injections, the mice were anesthetized with pentobarbital (100 mg/kg) and then perfused intracardially. During the intracardiac perfusion, physiological saline was administered to remove all blood from the body of the mice, and then 4% paraformaldehyde (PFA) was perfused to fix the organs. Post-fixation in 4% PFA was also performed overnight. The brains of the mice were cut with a vibratome (Leica), which allowed 40 μm floating frontal sections to be obtained. The sections selected for the immunological reaction were those ranging from bregma 3.3 to 5.3. Eight sections were selected with a regular spacing, allowing the entire hippocampus to be covered while remaining homogeneous from one brain to another.
# The immunological reaction was performed by incubating an anti-BrdU primary antibody (BD Pharmingen, 1/8000), with the brain sections, overnight at 4° C. The brain sections were then washed in PBS (Phosphate Buffered Saline) and incubated for two hours with the secondary antibody (biotinylated goat anti-mouse antibody, Vector laboratories, 1/400). […]
# The sections were then mounted on slides and fixed with Entellan. BrdU-positive cells of the dentate gyrus of the hippocampus were counted in both hemispheres of each brain. […]
# [2] = Learned helplessness test (LHT); type: in vivo; settings: mice, bolus of 100 μL of a 10^-6 M solution 30 minutes before conditioning, FIG. 4
# Protocol: Learned resignation or learned helplessness is a model based on the repeated administration of electric shocks to induce a resigned state in the animal.
# The apparatus comprises two compartments separated by a sliding door and with a floor consisting of a metal grid through which the electrical pulses are administered. The learned helplessness protocol is divided into two stages, an animal conditioning stage and a test stage.
# The conditioning was carried out over a period of four days during which time the mice received 360 non-avoidable electric shocks of 0.3 mA for one hour (the door, separating the two compartments, being closed). The shocks lasted for 2 seconds and an interval of 8 seconds was respected between each shock. This conditioning step leads to a phenomenon of helplessness in animals.
# On the day of the test, the mice were placed in the same compartments but with a possibility of escaping the shock. The test counted 30 trials. During the administration of the shock, the door separating the two compartments opened, allowing the animals to flee. When the animal changes compartment the test is finished and the shock stops. […] This test made it possible to record the escape latencies of the animals. The thirty tests were then grouped by 5 and the average escape time was calculated. […]
# LNCaP cells = assay: Growth of LNCaP cells by counting the cells in culture; type: cell-based; settings: cell count after 24 or 48 h, FIG. 7C
# [3] = target: T1, TREK-1 channels expressed on the ßTC3 cells (Mus musculus, UniProt P97438); assay: Whole-cell patch clamp, I=f(V), on ßTC3 cells activated with arachidonic acid; type: cell-based; settings: previously activated with arachidonic acid, FIG. 7A
# T1 construct: TREK-1 channels are present on the surface of beta-pancreatic cells such as beta-TC3 cells; endogenous in cells; host or cells: ßTC3 cells
# T1 sequence (P97438 1-426): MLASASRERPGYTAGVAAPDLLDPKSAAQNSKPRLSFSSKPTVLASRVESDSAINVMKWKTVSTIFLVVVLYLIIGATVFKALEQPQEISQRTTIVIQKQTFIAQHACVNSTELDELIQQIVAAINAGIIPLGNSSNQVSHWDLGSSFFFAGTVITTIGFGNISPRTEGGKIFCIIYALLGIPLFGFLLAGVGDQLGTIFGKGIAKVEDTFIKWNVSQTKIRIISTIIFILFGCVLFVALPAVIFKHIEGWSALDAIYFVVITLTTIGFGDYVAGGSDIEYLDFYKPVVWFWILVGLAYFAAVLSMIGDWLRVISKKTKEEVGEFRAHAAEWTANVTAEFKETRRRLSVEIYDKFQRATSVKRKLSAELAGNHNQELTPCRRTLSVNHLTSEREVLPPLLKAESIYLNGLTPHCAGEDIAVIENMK
# Protocol: (§1) All experiments measuring the effect of spadin analogs and spadin were performed on ßTC3 or LNCaP or HEK293 cells stably transfected with the TREK-1 channel, hTREK-1/HEK293. The hTREK-1/HEK293 cell line was prepared in the laboratory. These cells also express a reporter gene: E-Green Fluorescent Protein (EGFP) enabling their visualization.
# The ßTC3 cells were cultured in RPMI 1640 medium supplemented with 2.5% FCS, 50 μM beta-mercaptoethanol, 10 mM HEPES, 1 mM sodium pyruvate, 50 μg/ml gentamycin and 1% of a streptomycin+penicillin mixture, at 37° C. in the presence of 5% CO2.
# The LNCaP cells were cultured in DMEM medium (Gibco)/10% fetal calf serum (FCS, ICN)/1% streptomycin+penicillin mixture (Gibco)/1% glutamax (Gibco)/at 37° C. in the presence of 5% CO2. […] From day 2 to day 4, the cells were measured by electrophysiological methods.
# (§2) All measurements were made at room temperature, i.e. at 21-22° C. The hTREK-1/HEK293 cells were identified by the fluorescence emitted by EGFP after excitation at 480 nm. […]
# The cell culture medium was replaced with a solution 150 mM NaCl, 5 mM KCl, 3 mM MgCl2, 1 mM CaCl2, 10 mM HEPES/NaOH pH 7.4 containing 10 mM tetraethylammonium chloride, 3 mM 4-aminopyridine. […] The resting potential of the membrane of the measured cell was set at −80 mV. […]
# [4] = target: T2, TREK-1 channels expressed on the LNCaP cells (Homo sapiens, UniProt O95069); assay: Whole-cell patch clamp, I=f(V), on LNCaP cells activated with arachidonic acid; type: cell-based; settings: previously activated with arachidonic acid, FIG. 7B
# T2 construct: TREK-1 channels are also present on the surface of cancer cells such as LNCaP cells (prostate cancer); endogenous in cells; host or cells: LNCaP cells
# T2 sequence (O95069 1-426): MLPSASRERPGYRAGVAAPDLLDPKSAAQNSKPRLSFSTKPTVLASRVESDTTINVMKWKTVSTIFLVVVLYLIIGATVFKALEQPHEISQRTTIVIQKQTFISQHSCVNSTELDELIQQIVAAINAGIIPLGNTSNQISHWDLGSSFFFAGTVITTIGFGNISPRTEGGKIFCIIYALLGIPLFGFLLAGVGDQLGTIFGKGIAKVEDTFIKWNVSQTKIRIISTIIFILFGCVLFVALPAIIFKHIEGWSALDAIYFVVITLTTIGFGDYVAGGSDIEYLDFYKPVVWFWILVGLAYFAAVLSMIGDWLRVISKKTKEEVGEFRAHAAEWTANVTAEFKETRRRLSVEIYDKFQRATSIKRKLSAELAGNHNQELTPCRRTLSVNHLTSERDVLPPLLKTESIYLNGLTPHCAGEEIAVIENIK
# Protocol: as §1
# The LNCaP cells were cultured in DMEM medium (Gibco)/10% fetal calf serum (FCS, ICN)/1% streptomycin+penicillin mixture (Gibco)/1% glutamax (Gibco)/at 37° C. in the presence of 5% CO2. At day 1, the hTREK-1/HEK293 or BTC3 or LNCaP cells were seeded at 20,000 cells per 35 mm diameter dish containing 2 ml of culture medium. From day 2 to day 4, the cells were measured by electrophysiological methods.
# as §2
# The cell culture medium was replaced with a solution 150 mM NaCl, 5 mM KCl, 3 mM MgCl2, 1 mM CaCl2, 10 mM HEPES/NaOH pH 7.4 containing 10 mM tetraethylammonium chloride, 3 mM 4-aminopyridine. […] The resting potential of the membrane of the measured cell was set at −80 mV.
# The voltage variations were obtained either by continuous ramp (from −100 to +60 mV) or by a potential jump of 10 mV (from −100 to +60 mV, 1.5 seconds per jump). The data obtained were analyzed with the Pclamp software. […]
# TREK-1 channel = target: T3, TREK-1 channel (Homo sapiens, UniProt O95069); settings: previously shown; cited from earlier work
# T3 sequence (O95069 1-426): T2 sequence (O95069 1-426)
compound,measurement,setting,value
CC(C)C[C@H](NC(=O)CNC(=O)[C@H](Cc1c[nH]c2ccccc12)NC(=O)[C@H](CO)NC(=O)[C@@H](NC(=O)[C@H](C)NC(=O)CCCC[C@@H]1SC[C@@H]2NC(=O)N[C@@H]21)C(C)C)C(=O)N[C@@H](CCCNC(=N)N)C(=O)O [biotinylated G/A-PE(22-28)] (Biotin-AVSWGLR-OH; N-terminus and C-terminus assumed),PSD-95 synaptic protein expression (synaptogenesis),PSD-95 protein,increased PSD-95 synaptic protein expression
same,neurogenesis (BrdU-positive cells of the hippocampus),[1],increase neurogenesis more strongly than peptide PE(22-28); also recorded: capable of inducing an increase in neurogenesis
same,escape latencies in the learned helplessness test,[2],capable of reducing the escape latencies
"GVSWGLR (Peptide PE(22-28)) [base peptide derived from the propeptide, used for design of other peptides]",growth of LNCaP cells,LNCaP cells,inhibits their growth; also recorded: capable of inhibiting the cell growth
same,blocking of arachidonic acid (aa) activated TREK-1 / potassium currents on ßTC3 cells,[3],blocks arachidonic acid (aa) sensitive potassium currents
same,blocking of arachidonic acid (aa) activated TREK-1 / potassium currents on LNCaP cells,[4],blocks arachidonic acid (aa) sensitive potassium currents; also recorded: capable of blocking the TREK-1 channels
QDRLDAPPPPAAPLPRWSGPIGVSWGLRAAAAGGAFPRGGRWRR (Propeptide PE),blocking of TREK-1 channel activity,TREK-1 channel,able to block the activity of the TREK-1 channel
